Laboratory results: US8106055B2, “Substituted amide compounds” (Gruenenthal GmbH, priority 2007, dated 2012)

How the values were obtained:
human μ opiate receptor = biological target: T1, human μ opiate receptor (Homo sapiens, UniProt P35372); experiment: Affinity for the human μ opiate receptor ([3H]-naloxone displacement, CHO-K1 receptor membrane preparation, SPA); format: binding; conditions: test concentration of 1 μM
T1 construct: purchased PerkinElmer Life Sciences, Zaventem, Belgium RB-HOM; host or cells: CHO-K1 cells (membrane preparation)
T1 sequence (P35372 whole entry): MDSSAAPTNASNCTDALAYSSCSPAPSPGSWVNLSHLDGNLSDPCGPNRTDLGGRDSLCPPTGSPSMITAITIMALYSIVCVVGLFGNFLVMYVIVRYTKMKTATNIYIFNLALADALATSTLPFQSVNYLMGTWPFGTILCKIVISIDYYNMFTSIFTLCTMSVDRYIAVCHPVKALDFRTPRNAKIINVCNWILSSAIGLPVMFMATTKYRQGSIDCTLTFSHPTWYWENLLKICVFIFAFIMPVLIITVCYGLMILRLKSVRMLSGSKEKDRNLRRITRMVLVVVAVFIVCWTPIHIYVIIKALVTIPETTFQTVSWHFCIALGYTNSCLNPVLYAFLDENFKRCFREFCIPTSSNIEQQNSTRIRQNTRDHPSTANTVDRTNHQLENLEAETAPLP
Outline: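 CHO-K1 membranes expressing human μ receptor incubated 90 min at room temperature with 1 nmol/l [3H]-naloxone and WGA-SPA beads in 50 mmol/l Tris-HCl, 0.06% BSA; 100 μmol/l naloxone defines non-specific binding. Values are % inhibition of specific binding at 1 μM; IC50 converted to Ki by Cheng-Prusoff.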

[1] = biological target: T2, bradykinin 1 receptor (B1R) of the rat (Rattus norvegicus, UniProt P97583); experiment: Functional investigation on the rat bradykinin 1 receptor (B1R), Ca2+ FLIPR assay in CHO K1 rB1R cells; format: cell-based; conditions: B1R antagonism rat; test substance 10 μM; Ca2+ FLIPR, CHO K1 rB1R cells
T2 construct: expressed in transfected cells; host or cells: CHO K1 cells
T2 sequence (P97583 1-337): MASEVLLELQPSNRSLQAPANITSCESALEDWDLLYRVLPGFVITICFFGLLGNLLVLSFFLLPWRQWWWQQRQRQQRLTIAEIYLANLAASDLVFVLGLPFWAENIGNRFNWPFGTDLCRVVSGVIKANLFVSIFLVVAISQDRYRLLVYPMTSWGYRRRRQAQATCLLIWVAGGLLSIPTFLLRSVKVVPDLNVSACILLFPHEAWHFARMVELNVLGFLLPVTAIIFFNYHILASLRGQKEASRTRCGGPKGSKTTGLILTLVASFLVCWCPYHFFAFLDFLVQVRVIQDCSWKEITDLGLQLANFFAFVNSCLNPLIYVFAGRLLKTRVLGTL
Outline: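 Stably transfected CHO K1 cells loaded with Fluo-4; FLIPR Ca2+ fluorescence peak (ex 488/em 540 nm). Compound added first (agonism vs Lys-Des-Arg9-bradykinin ≥50 nM human, Des-Arg9-bradykinin 10 μM rat), then after 10-20 min agonist at EC80; antagonism as % inhibition, IC50 from concentration series, n=2-3, N≥2.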

| Structure (SMILES) | μ (binding on the μ opioid receptor, % inhibition) (human μ opiate receptor) | B1R Ant. r [10 μM] % Inhibition [1] |
| --- | --- | --- |
| CN(C)C(c1ccc(F)cc1)C1CCC(CCNC(=O)COCCN(C)S(=O)(=O)c2c(Cl)cc(Cl)cc2Cl)CC1 (centres unmarked) [Example 386] | 63% | 20% |
| CN(C)C(c1ccc(F)cc1)C1CCC(NC(=O)COCCN(C)S(=O)(=O)c2c(Cl)cccc2Cl)CC1 (centres unmarked) [Example 363] | 59% | 29% |
| COc1cc(C)c(S(=O)(=O)N(C)CCOCC(=O)NCCC2CCC(C(c3ccc(F)cc3)N(C)C)CC2)c(C)c1 (centres unmarked) [Example 392] | 57% | 103% |
| CN(C)C(c1ccc(Cl)cc1)C1CCC(CCNC(=O)COC2CCN(S(=O)(=O)c3ccccc3)C2)CC1 (centres unmarked) [Example 375] | 53% | 6% |
